Experiments:
p-p53 (Ser15) = experiment: Immunofluorescence staining of p-p53 (Ser15) in HCT116 cells; type: cell-based, human; conditions: HCT116, 24 hours
Experimental: (§1) HCT116 and HeLa cells were seeded on glass cover slips in 6-well plates. 24 hours after plating, HCT116 cells were incubated with 0.15, 0.5 and 1 µM NVX-412 and 1 µM CPT for 24 hours for staining of p-p53. For investigating γH2AX, HeLa cells were incubated with 0.21, 0.5 and 1 µM NVX-412 and 1 µM CPT for 3 or 24 hours. Additionally, cells were allowed to recover for 24 hours in normal growth medium after 24 hours of incubation with NVX-412 or CPT (wash-out experiment). After the respective treatments, cells were washed and fixed with 4% methanol-free formaldehyde (Polysciences Inc. Warrington, PA, USA) for 15 minutes at room temperature and then permeabilized with 0.2% Triton X-100/PBS for 2 minutes at room temperature. After blocking with goat serum (5%) in 1% BSA/0.3% Triton X-100/PBS, the respective primary antibody was added and cells were incubated at 4°C overnight. Antibodies used were: mouse p-p53 (Ser15) (Cell Signaling Technology, Danvers, MA, USA) at 1∶100 dilution and mouse p-H2AX (Ser139) (Millipore, Billerica, MA, USA) at 1∶1000 dilution in 1% BSA/PBS, respectively. Cells were then washed 3 times for 10 minutes with 0.25% BSA/0.1% Triton X-100/PBS and incubated with the Alexa Fluor 488 conjugated secondary anti-mouse antibody (1∶1000 in 0.25% BSA/0.1% Triton X-100/PBS) for 1 hour at room temperature in the dark. Cells were washed 3 times for 10 minutes with 0.05% Tween-20/PBS containing Hoechst 33342 (Sigma Aldrich, Vienna, AUT) and mounted with mounting medium (Fluoprep, bioMérieux, Marcy l'Etoile, FRA). Fluorescence was immediately recorded on a Zeiss LSM700 laser scanning microscope.

[1] = test system: Normal human endothelial cells (HUVEC); experiment: Cytotoxicity assay, normal cells; type: cell-based
Experimental: (§2) Cells were plated in 24-well plates. After cells were allowed to recover for 24 hours, NVX-412 was added in fresh growth medium. The maximal DMSO concentration reached in all experiments was below 0.01%. Respective control experiments at the highest DMSO concentration were performed in order to rule out DMSO-induced effects. After 72 hours incubation the proportion of viable cells was determined by cell counting with a Z1 Coulter Particle Counter (Beckman Coulter, Vienna, AUT), a ViCell XR (Beckman Coulter, Vienna, AUT) or a CASY® Cell Counter (Schärfe, Reutlingen, Germany). Cytotoxicity was expressed as IC50 values that were derived from the corresponding dose–response curves.

RKO = experiment: Cytotoxicity assay (cell counting); type: cell-based; conditions: Homo sapiens, colon carcinoma, 72 hours incubation
Experimental: as §2

NALM-1 = experiment: Cytotoxicity assay (cell counting); type: cell-based; conditions: Homo sapiens; NALM-1, CML; 72 hours incubation
Experimental: as §2

SU-DHL-8 = experiment: Cytotoxicity assay (cell counting); type: cell-based; conditions: Homo sapiens; SU-DHL-8, B-cell lymphoma; 72 hours incubation
Experimental: as §2

HepG2 = experiment: Cytotoxicity assay (cell counting); type: cell-based; conditions: Homo sapiens; HepG2, liver carcinoma; 72 hours incubation
Experimental: as §2

CL-1 = experiment: Cytotoxicity assay (cell counting); type: cell-based; conditions: Canis lupus familiaris; CL-1, canine T-cell lymphoma; 72 hours incubation
Experimental: as §2

BV173 = experiment: Cytotoxicity assay (cell counting); type: cell-based; conditions: Homo sapiens, BV-173; BV173, CML; 72 hours incubation
Experimental: as §2

HeLa = experiment: Cytotoxicity assay (cell counting); type: cell-based; conditions: Homo sapiens, cervix carcinoma, 72 hours incubation
Experimental: as §2

KG-1 = experiment: Cytotoxicity assay (cell counting); type: cell-based; conditions: Homo sapiens; KG-1, AML; 72 hours incubation
Experimental: as §2

OSW = experiment: Cytotoxicity assay (cell counting); type: cell-based; conditions: Canis lupus familiaris, canine T-cell lymphoma, 72 hours incubation
Experimental: as §2

K562 = experiment: Cytotoxicity assay (cell counting); type: cell-based; conditions: Homo sapiens; K562, CML; 72 hours incubation
Experimental: as §2

Hs578T = experiment: Cytotoxicity assay (cell counting); type: cell-based; conditions: Homo sapiens, Hs-578T, breast carcinoma, 72 hours incubation
Experimental: as §2

HL-60 = experiment: Cytotoxicity assay (cell counting); type: cell-based; conditions: Homo sapiens; HL-60, AML; 72 hours incubation
Experimental: as §2

MCF-7 = experiment: Cytotoxicity assay (cell counting); type: cell-based; conditions: Homo sapiens, MCF7; MCF-7, breast adenocarcinoma; 72 hours incubation
Experimental: as §2

CLBL-1 = experiment: Cytotoxicity assay (cell counting); type: cell-based; conditions: Canis lupus familiaris; CLBL-1, canine B-cell lymphoma; 72 hours incubation
Experimental: as §2

SU-DHL-6 = experiment: Cytotoxicity assay (cell counting); type: cell-based; conditions: Homo sapiens; SU-DHL-6, B-cell lymphoma; 72 hours incubation
Experimental: as §2

KG-1a = experiment: Cytotoxicity assay (cell counting); type: cell-based; conditions: Homo sapiens, AML, 72 hours incubation
Experimental: as §2

γH2AX (Ser139) = experiment: Immunofluorescence staining and quantification of γH2AX in HeLa cells; type: cell-based, human
Experimental: as §1
The common procedure for assessing γH2AX induction is to count γH2AX foci. Since with NVX-412 and the positive control CPT γH2AX activation was that strong, no distinguishable and countable foci were seen. Therefore, the average γH2AX fluorescence intensity per nucleus was determined. To this end, γH2AX intensities within a certain field were measured using Quantity One –4.6.9 (Basic freeware version, Bio-Rad Laboratories, Hercules, CA, USA) and were divided by the number of nuclei in this field.

HT-29 = experiment: Cytotoxicity assay (cell counting); type: cell-based, Human
Experimental: as §2

HCT116 = experiment: Cytotoxicity assay (cell counting); type: cell-based, Human
Experimental: as §2

HT-29 cells = experiment: Clonogenic assay; type: cell-based, human; conditions: HT-29, 14 days incubation
Experimental: (§3) For clonogenic assays, HT-29 and HepG2 cells were plated in 60 mm dishes at a density of 1000 cells per dish. After 24 hours NVX-412 was added at the indicated concentrations. After cultivation for 12–14 days (when assessable colonies were visible), colonies were fixed in 70% ethanol, stained with 0.5% Crystal Violet and counted manually.

HepG2 cells = experiment: Clonogenic assay; type: cell-based, human; conditions: HepG2, 12 days incubation
Experimental: as §3

What does the source list for `O=C(NNc1nc2cc(F)ccc2n2cccc12)c1cnccn1` [NVX-412, Pyrazine-2-carboxylic acid N’- (7-fluoro-pyrrolo[1,2-α]quinoxalin-4-yl)-hydrazide-oxalic acid co-crystal]?
p-p53 (Ser15) immunofluorescence staining (p-p53 (Ser15); 0.5 and 1 µM): positive staining; p-p53 (Ser15) immunofluorescence staining (p-p53 (Ser15); IC50 concentration): did not lead to p-p53 (Ser15) staining; IC50 [1]: 2000 nM; IC50 (RKO): 150 nM; IC50 (NALM-1): 330 nM; IC50 (SU-DHL-8): 80 nM; IC50 (HepG2): 290 nM; IC50 (CL-1): 170 nM; IC50 (BV173): 210 nM; IC50 (HeLa): 210 nM; IC50 (KG-1): 190 nM; IC50 (OSW): 103 nM; IC50 (K562): 540 nM; IC50 (Hs578T): 135 nM; IC50 (HL-60): 210 nM; IC50 (MCF-7): 150 nM; IC50 (CLBL-1): 40 nM; IC50 (SU-DHL-6): 320 nM; IC50 (KG-1a): 145 nM; γH2AX induction (γH2AX (Ser139); 3 hours): Only a slight induction of γH2AX; γH2AX levels after recovery (wash-out) (γH2AX (Ser139); 24 hours treatment then 24 hours without drug): decreased to nearly basal levels; γH2AX levels (γH2AX (Ser139); 24 hours, 0.21, 0.5 and 1 µM): elevated after a 24 hour treatment in a dose-dependent manner; γH2AX staining increase (average fluorescence intensity per nucleus) (γH2AX (Ser139); 24 hours, highest concentration tested, p-value <0.0001): up to 15 fold; IC50 lower compared to the parental compound NVX-144 (HT-29; HT-29 colon carcinoma cell line): 3 to 4 fold; IC50 (HT-29; Homo sapiens, HT-29, colon adenocarcinoma, 72 hours incubation): 300 nM; IC50 lower compared to the parental compound NVX-144 (HCT116; HCT116 colon carcinoma cell line): 3 to 4 fold; IC50 (HCT116; Homo sapiens, HCT-116, HCT116, colon carcinoma, 72 hours incubation): 150 nM; Clonogenic survival (HT-29 cells): reduced the ability of HepG2 and HT-29 cells to form colonies in a dose-dependent manner; Clonogenic survival (HepG2 cells): reduced the ability of HepG2 and HT-29 cells to form colonies in a dose-dependent manner

Reference: publication PMC3441706 (PLoS ONE, 2012)
